Literature values as cited in patent US20080114067A1, “Composition for Recovery From or Prevention of Central Nervous System Fatigue” (priority 2005, published 2008).

Test system: human placental cell
Settings: placental brush border tissue

**Q.** For `N[C@@H](CS)C(=O)O` [L-cysteine], which “suppression of uptake of tryptophan” value is on record?
**A.** could be suppressed

**Q.** For `CC(C)C[C@H](N)C(=O)O` [L-leucine], which “suppression of uptake of tryptophan” value is on record?
**A.** could be suppressed

**Q.** Which “suppression of uptake of tryptophan” value does the source give for `CSCC[C@H](N)C(=O)O` [L-methionine] here?
**A.** could be suppressed

**Q.** Which “suppression of uptake of tryptophan” value does the source give for `N[C@@H](Cc1ccccc1)C(=O)O` [L-phenylalanine] here?
**A.** could be suppressed

**Q.** For `CC(C)[C@H](N)C(=O)O` [L-valine], which “suppression of uptake of tryptophan” value is on record?
**A.** could be suppressed
